Data reported in patent publication US20210008084A1, “MEVALONATE PATHWAY INHIBITOR AND PHARMACEUTICAL COMPOSITION THEREOF” (TSINGHUA UNIVERSITY, priority 2017, published 2021).

Assays:
B16F10 cells [1] = test: Type I interferon and ISG gene expression by Q-PCR in B16F10; assay type: cell-based, mouse; settings: GGOH 20 μM with Sim 10 μM or Zol 10 μM, 48 h
Method: Method: B16F10 cells were cultured with RPMI medium 1640+10% FBS+1% PS, and the remaining cells were cultured with DMEM+10% FBS+1% PS. 5×10^5 B16F10 and 4T1 cells were plated in 6-well plates and adhered for 12 hours, and then treated with simvastatin and zoledronic acid in the figure, and the control group was treated with normal culture medium. A part of the cells treated with the drugs were lysed with 1 ml of Trizol, and RNA was extracted. The expression of IFN-β1, IRF7, IFI44L, IL-15, MAGEB-2 and other genes was detected by LightCycler® 480 II using a Q-PCR method (see table 3 for the primer sequence). In addition, the rescue effect of GGOH on the role of simvastatin and zoledronic acid to promote the release of type I interferon (IFN-β1) and the expression of type I interferon-related stimulated genes ISGs was also tested.

B16F10 cells [2] = test: Phagocytosis of drug-treated B16F10 cells by bone marrow-derived DC cells; assay type: cell-based, mouse; settings: B16F10 treated with Sim 30 μM 12 h, Zol 30 μM 24 h, Doxorubicin 10 μM 12 h; flow cytometry
Method: Method: C57/b6 mouse bone marrow cells were cultured in DC differentiation solution, RMPI 1640+10 ng/ml GM-CSF+10 ng/ml IL-4 containing 10% FBS for 7 days. It was ready for use when the percentage of DC cells was above 90%.
B16F10 cells were plated in 6-well plates at a density of 5×10^5. After being adhered for 12 hours, they were treated with Sim and Zol in the figure, and the control group was treated with normal culture medium. The cells treated with the drug were digested with trypsin, and the cells were obtained after centrifugation.
Cell Staining: Flow Cytometry Staining: B16F10 tumor cells were stained for 30 min in 1 ug/ml CFSE at room temperature, and washed twice with PBS after staining; BMDC cells were stained for 30 min in 1 uM CellTracker™ Red, and washed twice with PBS after staining. Cells were ready for use. Immunofluorescence staining: B16F10 cells were stained with DiD, and DC cells were stained with CFSE.
After the drug treatment, the B16F10 control group Ctrl, Sim treatment group, Zol treatment group, and DOX treatment group were co-incubated with DC cells in a 1:1 ratio for 3 hours in an incubator at 37° C., and fixed with 200 ul fluorescent antibody preservation solution (1 ml formaldehyde, 2 g glucose dissolved in 100 ml PBS) after the incubation. Flow cytometer BD FACSAria SORP was used for detection. Data was analyzed with Flojo 7.6.2 software. Cell Tracker™ Red-positive DC cells were first circled out, and the number of CellTracker™ Red-positive DC cells phagocytosing CFSE-positive tumor cells was analysized.

B16F10 cells [3] = test: Apoptosis of B16F10 cells, Annexin V and PI staining, flow cytometry; assay type: cell-based, mouse; settings: after the drug treatment
Method: After the drug action, the cells were digested with trypsin into a single-cell suspension, washed with PBS, and stained with Annexin V and PI according to the steps of the apoptosis kit. After staining, data was collected by a flow cytometer, and the data was analyzed by FlowJo7.6. Total RNA was extracted from cells according to the Trizol method, and the RNA was used as a template, and the RNA was reverse transcripted using a reverse transcription kit to cDNA. The obtained cDNA was used for real-time quantitative PCR. 10 μl reaction system was configured according to qPCR SYBR Green Master Mix product instructions, three replicates were set up for each sample. The experimental data was collected using a fluorogenic quantitative PCR instrument LightCycler480 of Roche, and the data was calculated according to the 2^−ΔΔc (t) method.

4T1 cells = test: CRT and ERp57 on tumor cell membrane after intratumoral injection, 4T1 subcutaneous model; assay type: in vivo, mouse; settings: 4T1 tumors in BALB/c mice, harvested day 14
Method: In vivo experiments: 1×10^6 4 T1 cells were transplanted subcutaneously into the left hip of BALB/c mice and administered starting on the 8th day after tumor transplantation: Sim, dissolved in 75% DMSO, 2 mg/kg, intratumoral injection (i.t.), once every two days for a total of 3 times; Zol, dissolved in sterile PBS, 1 mg/kg, i.t. for once. Tumors were harvested on the 14th day after tumor transplantation. Tumor dissociation kit (mouse) was used to dissociate the tumor into single cells for staining. The staining procedure was performed according to the in vitro experiments as mentioned above.

CT26 cells = test: Drug-treated dying CT26 cells as tumor vaccine, re-challenge with live CT26 cells; assay type: in vivo, mouse; settings: BALB/c mice immunized with CT26 cells treated 72 h; 30 days after transplantation; n=10
Method: Method: CT26 cells were treated with simvastatin or zoledronic acid. 1.5-3×10^6 dying cells were implanted subcutaneously in the right side of BALB/c mice. The control group was injected with PBS. 1×10^6 live CT26 cells were implanted subcutaneously in the left side of the mice, and tumor volume was observed and measured. Mice with tumor volumes >100 mm^3 were identified as tumor-growing mice, and the number of mice without tumor growth was recorded.
A key factor to determine the ability of drugs to induce immunogenic cell death is whether drug-treated tumor cells can be used as vaccines to protect the body against the re-challenge of the tumor cells. We treated CT26 mouse colon cancer cells with Sim and Zol for 72 h to a dying state, and BALB/c mice were immuned with these dying cells, wherein PBS was injected in the control group. After 7 days, the mice were injected with 5×10^5 live CT26 cells (re-challenge), and the tumor growth was observed after 7 days. 100% of the mice in the control group (n=10) grew tumors on day 9. After 30 days of transplantation, in mice immunized with CT26 cells treated with Sim (n=10) and Zol (n=10), the ratios of tumor-free mice were 80% and 90%, respectively, with statistical difference (FIG. 5).

[4] = after at least 3 years of treatment; more than 1,800 patients; cited from earlier work
melanoma = settings: patients progressing after Ipilimumab; cited from earlier work

Compound: CC(C)=CCC/C(C)=C/CC/C(C)=C/CC/C(C)=C/CO [GGOH]
- effect of GGOH on release of type I interferon and ISG by simvastatin and zoledronic acid (B16F10 cells [1]): counteract

Compound: COc1cccc2c1C(=O)c1c(O)c3c(c(O)c1C2=O)C[C@@](O)(C(=O)CO)C[C@@H]3O[C@H]1C[C@H](N)[C@H](O)[C@H](C)O1 [dox, doxorubicin]
- DC cells that phagocytosed tumor cells (B16F10 cells [2]): approximately 38%

Compound: CCC(C)(C)C(=O)O[C@H]1C[C@@H](C)C=C2C=C[C@H](C)[C@H](CC[C@@H]3C[C@@H](O)CC(=O)O3)[C@H]21 [simvastatin]
- proportion of cells in the late stage of apoptosis (Annexin+PI+) (B16F10 cells [3]): about 50%
- CRT expressed on the membrane surface (4T1 cells): about 1.7 times that of the control group
- ERp57 expressed on the membrane surface (4T1 cells): about 1.7 times that of the control group
- DC cells that phagocytosed tumor cells (B16F10 cells [2]): 51.6%
- ratio of tumor-free mice (CT26 cells): 80%

Compound: O=P(O)(O)C(O)(Cn1ccnc1)P(=O)(O)O [zoledronic acid]
- proportion of cells in the late stage of apoptosis (Annexin+PI+) (B16F10 cells [3]): about 50%
- CRT expressed on the membrane surface (4T1 cells): about 1.7 times that of the control group
- ERp57 expressed on the membrane surface (4T1 cells): about 1.7 times that of the control group
- DC cells that phagocytosed tumor cells (B16F10 cells [2]): about 35%
- ratio of tumor-free mice (CT26 cells): 90%

Compound: Ipilimumab: humanized CTLA-4 antibody
- patient survival rate [4]: approximately 20%

Compound: Nivolumab: antibody targeting PD-1
- patients with complete remission (melanoma): 32%
